{"source": "PubChem BioAssay AID1259407", "about": "(Chemical Carcinogenesis Research Information System (CCRIS), 2018)", "system": "CCRIS mutagenicity, Ames/micronucleus/aberration tests", "assay": "CCRIS mutagenicity studies", "note": "Calls of active or inactive are those of the source. How the calls were made is not given here.", "data": [{"compound": "CCN(CC)N=O", "values": [{"measurement": "mutagenic call", "setting": "Test System: AMES SALMONELLA TYPHIMURIUM, Strain/Indicator: TA2410, Metabolic Activation: NONE, Method: HOST-MEDIATED", "result": "active; positive"}, {"measurement": "mutagenic call", "setting": "Test System: AMES SALMONELLA TYPHIMURIUM, Strain/Indicator: TA2678, Metabolic Activation: NONE, Method: HOST-MEDIATED", "result": "active; positive"}, {"measurement": "mutagenic call", "setting": "Test System: AMES SALMONELLA TYPHIMURIUM, Strain/Indicator: YG1024, Metabolic Activation: NONE, Method: PREINCUBATION", "result": "inactive; negative"}, {"measurement": "mutagenic call", "setting": "Test System: AMES SALMONELLA TYPHIMURIUM, Strain/Indicator: YG1024, Metabolic Activation: RAT LIVER S-9, AROCLOR, Method: PREINCUBATION", "result": "active; positive"}, {"measurement": "mutagenic call", "setting": "Test System: AMES SALMONELLA TYPHIMURIUM, Strain/Indicator: YG7100, Metabolic Activation: S-9, Method: PREINCUBATION", "result": "inactive; negative"}, {"measurement": "mutagenic call", "setting": "Test System: AMES SALMONELLA TYPHIMURIUM, Strain/Indicator: YG7104, Metabolic Activation: S-9, Method: PREINCUBATION", "result": "active; positive"}, {"measurement": "mutagenic call", "setting": "Test System: AMES SALMONELLA TYPHIMURIUM, Strain/Indicator: YG7104ER, Metabolic Activation: NONE, Method: STANDARD PLATE", "result": "active; positive"}, {"measurement": "mutagenic call", "setting": "Test System: AMES SALMONELLA TYPHIMURIUM, Strain/Indicator: YG7108-2A6-OR, Metabolic Activation: NONE, Method: PREINCUBATION", "result": "active; positive"}, {"measurement": "mutagenic call", "setting": "Test System: AMES SALMONELLA TYPHIMURIUM, Strain/Indicator: YG7108-2A6, Metabolic Activation: NONE, Method: PREINCUBATION", "result": "active; positive"}, {"measurement": "mutagenic call", "setting": "Test System: AMES SALMONELLA TYPHIMURIUM, Strain/Indicator: YG7108-PCW, Metabolic Activation: NONE, Method: PREINCUBATION", "result": "inactive; negative"}, {"measurement": "mutagenic call", "setting": "Test System: AMES SALMONELLA TYPHIMURIUM, Strain/Indicator: YG7108, Metabolic Activation: RAT LIVER S-9, PHENOBARBITAL AND 5,6-BENZOFLAVONE, Method: PREINCUBATION", "result": "active; positive"}, {"measurement": "mutagenic call", "setting": "Test System: AMES SALMONELLA TYPHIMURIUM, Strain/Indicator: YG7108, Metabolic Activation: S-9, Method: PREINCUBATION", "result": "active; positive"}, {"measurement": "mutagenic call", "setting": "Test System: AMES SALMONELLA TYPHIMURIUM, Strain/Indicator: YG7108ER, Metabolic Activation: NONE, Method: STANDARD PLATE", "result": "active; positive"}, {"measurement": "mutagenic call", "setting": "Test System: AMES SALMONELLA TYPHIMURIUM, Strain/Indicator: YG7112, Metabolic Activation: S-9, Method: PREINCUBATION", "result": "active; positive"}, {"measurement": "mutagenic call", "setting": "Test System: AMES SALMONELLA TYPHIMURIUM, Strain/Indicator: YG7113, Metabolic Activation: S-9, Method: PREINCUBATION", "result": "active; positive"}, {"measurement": "mutagenic call", "setting": "Test System: AMES SALMONELLA TYPHIMURIUM, Strain/Indicator: YG7119, Metabolic Activation: S-9, Method: PREINCUBATION", "result": "inactive; negative"}, {"measurement": "mutagenic call", "setting": "Test System: Ames Salmonella typhimurium, Strain/Indicator: TA98, Metabolic Activation: None, Method: Preincubation", "result": "active; positive"}, {"measurement": "mutagenic call", "setting": "Test System: Ames Salmonella typhimurium, Strain/Indicator: TA98, Metabolic Activation: Rat, Liver, S-9, Aroclor 1254 (4%), Method: Preincubation", "result": "active; positive"}, {"measurement": "mutagenic call", "setting": "Test System: Ames Salmonella typhimurium, Strain/Indicator: TA98DNP6 (Acetyltransferase deficient), Metabolic Activation: None, Method: Preincubation", "result": "inactive; negative"}, {"measurement": "mutagenic call", "setting": "Test System: Ames Salmonella typhimurium, Strain/Indicator: TA98DNP6 (Acetyltransferase deficient), Metabolic Activation: Rat, Liver, S-9, Aroclor 1254 (4%), Method: Preincubation", "result": "inactive; negative"}, {"measurement": "mutagenic call", "setting": "Test System: Ames Salmonella typhimurium, Strain/Indicator: TA98NR, Metabolic Activation: None, Method: Preincubation", "result": "inactive; negative"}, {"measurement": "mutagenic call", "setting": "Test System: Ames Salmonella typhimurium, Strain/Indicator: TA98NR, Metabolic Activation: Rat, Liver, S-9, Aroclor 1254 (4%), Method: Preincubation", "result": "inactive; negative"}, {"measurement": "mutagenic call", "setting": "Test System: Ames Salmonella typhimurium, Strain/Indicator: YG1021, Metabolic Activation: None, Method: Preincubation", "result": "inactive; negative"}, {"measurement": "mutagenic call", "setting": "Test System: Ames Salmonella typhimurium, Strain/Indicator: YG1021, Metabolic Activation: Rat, Liver, S-9, Aroclor 1254 (4%), Method: Preincubation", "result": "inactive; negative"}, {"measurement": "mutagenic call", "setting": "Test System: Ames Salmonella typhimurium, Strain/Indicator: YG1024 (Acetyltransferase overproducing), Metabolic Activation: None, Method: Preincubation", "result": "inactive; negative"}, {"measurement": "mutagenic call", "setting": "Test System: Ames Salmonella typhimurium, Strain/Indicator: YG1024 (Acetyltransferase overproducing), Metabolic Activation: Rat, Liver, S-9, Aroclor 1254 (4%), Method: Preincubation", "result": "active; positive"}, {"measurement": "mutagenic call", "setting": "Test System: Ames Salmonella typhimurium, Strain/Indicator: YG1041 (Acetyltransferase and nitroreductase overproducing), Metabolic Activation: None, Method: Preincubation", "result": "inactive; negative"}, {"measurement": "mutagenic call", "setting": "Test System: Ames Salmonella typhimurium, Strain/Indicator: YG1041 (Acetyltransferase and nitroreductase overproducing), Metabolic Activation: Rat, Liver, S-9, Aroclor 1254 (4%), Method: Preincubation", "result": "inactive; negative"}, {"measurement": "mutagenic call", "setting": "Test System: Ames Salmonella typhimurium, Strain/Indicator: YG7108pin3ERb5, Metabolic Activation: None, Method: Standard plate", "result": "active; positive"}, {"measurement": "mutagenic call", "setting": "Test System: CHINESE HAMSTER V-79, Strain/Indicator: V-79 (HPRT)/6-THIOGUANINE, Metabolic Activation: RAT, HEPATOCYTES", "result": "active; positive"}, {"measurement": "mutagenic call", "setting": "Test System: CHINESE HAMSTER V-79, Strain/Indicator: V-79 (HPRT)/6-THIOGUANINE, Metabolic Activation: RAT, HEPATOMA, H4IIE CELLS", "result": "inactive; negative"}, {"measurement": "mutagenic call", "setting": "Test System: CHINESE HAMSTER V-79, Strain/Indicator: V-79 (HPRT)/6-THIOGUANINE, Metabolic Activation: RAT, LIVER, S-9, AROCLOR 1254", "result": "active; positive"}, {"measurement": "mutagenic call", "setting": "Test System: CHINESE HAMSTER V-79, Strain/Indicator: V-79/8-AZAGUANINE, Metabolic Activation: RAT, LIVER, S-15, PHENOBARBITAL, Method: STANDARD PLATE", "result": "active; positive"}, {"measurement": "mutagenic call", "setting": "Test System: CHINESE HAMSTER V-79, Strain/Indicator: V-79/OUABAIN, Metabolic Activation: CELL-MEDIATED, Method: STANDARD PLATE", "result": "active; positive"}, {"measurement": "mutagenic call", "setting": "Test System: CHINESE HAMSTER V-79, Strain/Indicator: V-79/OUABAIN, Metabolic Activation: HAMSTER, HEPATOCYTES, Method: CELL-MEDIATED", "result": "active; positive"}, {"measurement": "mutagenic call", "setting": "Test System: E. COLI, Strain/Indicator: WP2 (HCR-), Metabolic Activation: RAT, LIVER, MICROSOMES, PHENOBARBITAL", "result": "active; positive"}, {"measurement": "mutagenic call", "setting": "Test System: E. COLI, Strain/Indicator: WP2 UVRA, Metabolic Activation: HAMSTER, LIVER, S-9, AROCLOR 1254, Method: PREINCUBATION", "result": "active; positive"}, {"measurement": "mutagenic call", "setting": "Test System: E. COLI, Strain/Indicator: WP2 UVRA, Metabolic Activation: HAMSTER, LIVER, S-9, AROCLOR 1254, Method: STANDARD PLATE", "result": "inactive; negative"}, {"measurement": "mutagenic call", "setting": "Test System: E. COLI, Strain/Indicator: WP2 UVRA, Metabolic Activation: HAMSTER, LIVER, S-9, Method: PREINCUBATION", "result": "active; positive"}, {"measurement": "mutagenic call", "setting": "Test System: E. COLI, Strain/Indicator: WP2 UVRA, Metabolic Activation: HAMSTER, LIVER, S-9, Method: STANDARD PLATE", "result": "inactive; negative"}, {"measurement": "mutagenic call", "setting": "Test System: E. COLI, Strain/Indicator: WP2 UVRA, Metabolic Activation: MOUSE, LIVER, S-9, AROCLOR 1254, Method: STANDARD PLATE", "result": "inactive; negative"}, {"measurement": "mutagenic call", "setting": "Test System: E. COLI, Strain/Indicator: WP2 UVRA, Metabolic Activation: MOUSE, LIVER, S-9, Method: STANDARD PLATE", "result": "inactive; negative"}, {"measurement": "mutagenic call", "setting": "Test System: E. COLI, Strain/Indicator: WP2 UVRA, Metabolic Activation: NONE, Method: STANDARD PLATE", "result": "inactive; negative"}, {"measurement": "mutagenic call", "setting": "Test System: E. COLI, Strain/Indicator: WP2 UVRA, Metabolic Activation: RAT, LIVER, S-9, Method: PREINCUBATION", "result": "inactive; negative"}, {"measurement": "mutagenic call", "setting": "Test System: E. COLI, Strain/Indicator: WP2 UVRA, Metabolic Activation: RAT, LIVER, S-9, Method: STANDARD PLATE", "result": "inactive; negative"}, {"measurement": "mutagenic call", "setting": "Test System: MOUSE LYMPHOMA, Strain/Indicator: L5178Y (TK+/TK-), Metabolic Activation: RAT, LIVER, S-9, AROCLOR 1254, Method: SUSPENSION/PLATE", "result": "active; positive"}, {"measurement": "mutagenic call", "setting": "Test System: UDS RAT HEPATOCYTES, Strain/Indicator: THY INCORP, Metabolic Activation: NONE, Method: LIQUID SCINTILLATION COUNTING", "result": "active; positive"}, {"measurement": "mutagenic call", "setting": "Test System: UDS RODENT HEPATOCYTES, Strain/Indicator: THY INCORP (NON-S-PHASE), Method: AUTORADIOGRAPHY", "result": "active; positive"}]}]}
